Results published in patent publication US20240197695A1, “COMPOUND FOR PREVENTION OR TREATMENT OF KIDNEY DISEASE” (ONCOCROSS CO.,LTD, priority 2021, published 2024).
Marks after values point to notes of the source that are not given here.

Columns and labels:
Assay type in all cases: in vivo, mice (C57BL/6)
[1] = tested on: diabetic nephrosis animal models; conditions: 2 mg/kg/day oral, after observation period, fasted
Procedure: (§1) STZ (Sigma-aldrich, S0130, 40 mg/kg b.w., in 0.1 M citrate buffer pH 4.5) was intraperitoneally administered to 9-week-old male mice (C57BL/6) once/1 day for 5 days to perform a first disease induction. After 7 weeks of the first induction, a second induction was performed using the same method as the first induction. For 5 days of an STZ administration period for the first induction, 10% sucrose was administered as drinking water. In addition, after 14 days of the second administration, blood glucose levels were confirmed to confirm the induction rate, and the induced animals were separated into groups. Experimental substances (R)-4-{(R)-1-[7-(3,4,5-trimethoxy-phenyl)-[1,6] naphthyridin-5-yloxy]-ethyl}pyrrolidin-2-one (BI-1002494) and cromolyn (OC-101) were administered orally into the stomach at 10 mL/kg using an administration syringe (sonde) before 16:00 daily for 12 weeks at a frequency of 7 days/week at doses shown in Table 1 below, and dexamethasone was orally administered as a positive control substance.
(§2) After the observation period for mice of each group in Example 1 was terminated, all surviving animals were fasted in the same manner as when measuring blood glucose levels, and then anesthetized by inhaling isoflurane, and blood was collected from the abdominal vena cava through laparotomy. After the blood collection was completed, the veins and arteries were cut under anesthesia and exsanguinated. The collected blood was left at room temperature for 30 minutes or more and then centrifuged at 3,000 rpm for 20 minutes. Thereafter, glucose, Blood urea nitrogen (BUN), and creatinine were analyzed using an automated blood biochemistry analyzer (Hitachi 3100, Hitachi Co. Ltd., Japan). Indoxyl sulfate (a substance that was mainly produced in the intestines to cause renal injury, and a substance that caused end-stage renal failure by advancing renal function damage in patients with renal failure during hemodialysis) was analyzed using LC MS/MS. In addition, blood insulin was analyzed according to a method represented by a commercial Mouse Insulin ELISA KIT (#AKRIN-011T, Sibayagi Co. Ltd., Japan).

[2] = tested on: diabetic nephrosis animal models; test: Histopathological change (H&E) in liver, kidney, pancreas; conditions: G3, 2 mg/kg oral; count in group of 10 animals
Procedure: as §1
At the end of the observation period, the mice in each group of Example 1 were confirmed to be dead, and the liver, kidney, and pancreas were extracted and fixed with 10% neutral buffered formalin (NBF) in at least 20 times the tissue volume. The fixed tissue was sectioned to a thickness of approximately 4 mm and then produced into a paraffin block through general tissue processing and embedding processes. Thereafter, the tissue was sectioned to a thickness of 4 μm using a rotary microtome, and then H&E staining was performed, and histopathological changes were observed.

[3] = Body weights of mice in diabetic nephrosis model; conditions: 2 mg/kg/day oral
Procedure: as §1

[4] = Feed intake of mice in diabetic nephrosis model; parameters: Feed intake, Mean: unit not given here; conditions: 2 mg/kg/day oral
Procedure: as §1

[5] = tested on: diabetic nephrosis animal models; test: Changes in blood glucose levels (tail vein, blood glucose level meter); conditions: 2 mg/kg/day oral
Procedure: as §1
Before disease induction, excluding week 9 of administration of experimental substances to mice in each group of Example 1 above, after 2 weeks after the first induction (based on a first administration date), and after 6 weeks and 2 weeks of the second induction (based on the first administration date), blood was collected from the tail vein and blood glucose levels were measured using a blood glucose level meter (Accu-Check, Roche), and fasting was performed for 4 hours from 9:30 a.m. to 1:30.

[6] = tested on: diabetic nephrosis animal models; test: Blood insulin (Mouse Insulin ELISA KIT) and HOMA-IR; conditions: 2 mg/kg/day oral, after observation period, fasted
Procedure: as §1, §2

[7] = tested on: diabetic nephrosis animal models; test: Blood indoxyl sulfate by LC MS/MS; conditions: 2 mg/kg/day oral, after observation period, fasted
Procedure: as §1, §2

[8] = Drinking water intake of mice in diabetic nephrosis model; parameters: unit not given here; conditions: 2 mg/kg/day oral
Procedure: as §1

In the case of C[C@@H]1C[C@H]2[C@@H]3CCC4=CC(=O)C=C[C@]4(C)[C@@]3(F)[C@@H](O)C[C@]2(C)[C@@]1(O)C(=O)CO [Dexa, dexamethasone, reference compound], the “CRE, Mean” value [1] is reported as 0.1 mg/dL, the “GLU, Mean” value [1] is reported as 335.6^# mg/dL and the “T-CHO, Mean” value [1] is reported as 139.0 mg/dL. For the same compound, the “Kidney: Medullar apoptosis” value [2] was 1, the “Kidney: Medullar mineralization” value [2] was 1 and the “Kidney: NHL” value [2] was 6. For the same compound, the “Kidney: bowman's capsule hyperplasia” value [2] was 2, the “Kidney: pappillary mineralization” value [2] was 0 and the “Liver: Apoptosis” value [2] was 4. The “Liver: Cytoplasmic glycogen” value [2] was 0, the “Liver: Eosinophlic focus of cellular alteration” value [2] was 3 and the “Liver: Mononuclear cell infiltrate” value [2] was 0. For the same compound, the “Liver: NHL” value [2] was 5, the “Pancrease: Apoptosis” value [2] was 0 and the “Pancrease: NHL” value [2] was 8. The “Pancrease: islet degeneration” value [2] was 1, the “Pancrease: islet hypertrophy” value [2] was 0 and the “Pancrease: islet, mononuclear cell infillitrate” value [2] was 1. It also gave a Body weight, Mean ([3]; week 0) of 24 g, a Body weight, Mean ([3]; week 1) of 23.5 g and a Body weight, Mean ([3]; week 2) of 23.6 g. For the same compound, the Body weight, Mean ([3]; week 3) was 23.6 g, the Body weight, Mean ([3]; week 4) was 23.6 g and the Body weight, Mean ([3]; week 5) was 23.7 g. The Body weight, Mean ([3]; week 6) was 23.6 g, the Body weight, Mean ([3]; week 7) was 23.8 g and the Body weight, Mean ([3]; week 8) was 23.6 g. For the same compound, the Body weight, Mean ([3]; week 10) was 23.3 g, the “Feed intake, Mean” value ([4]; week 0) was 6.71 and the “Feed intake, Mean” value ([4]; week 1) was 5.48. For the same compound, the “Feed intake, Mean” value ([4]; week 2) was 5.80, the “Feed intake, Mean” value ([4]; week 3) was 5.84 and the “Feed intake, Mean” value ([4]; week 4) was 5.89. The “Feed intake, Mean” value ([4]; week 5) was 5.65, the “Feed intake, Mean” value ([4]; week 6) was 5.30 and the “Feed intake, Mean” value ([4]; week 7) was 5.56. For the same compound, the “Feed intake, Mean” value ([4]; week 8) was 5.21, the “Feed intake, Mean” value ([4]; week 9) was 5.29 and the “Feed intake, Mean” value ([4]; week 10) was 5.64. The “Blood glucose level, Mean” value ([5]; week 0, 4 h fasting, in mg/dL (unit assumed)) was 307.1, the “Blood glucose level, Mean” value ([5]; week 2, 4 h fasting, in mg/dL (unit assumed)) was 309.1 and the “Blood glucose level, Mean” value ([5]; week 4, 4 h fasting, in mg/dL (unit assumed)) was 329.2. For the same compound, the “Blood glucose level, Mean” value ([5]; week 6, 4 h fasting, in mg/dL (unit assumed)) was 336.9, the “Blood glucose level, Mean” value ([5]; week 8, 4 h fasting) was 286.1^# and the “Blood glucose level, Mean” value ([5]; week 10, 4 h fasting, in mg/dL (unit assumed)) was 331.4. For the same compound, the “HOMA-IR, Mean” value [6] was 11.2^#, the “Insulin, Mean” value [6] was 0.6 ng/mL and the “Indoxyl sulfate, Mean” value [7] was 2.5^# μg/mL. For the same compound, the “Drinking water intake, Mean” value ([8]; week 0) was 7.07, the “Drinking water intake, Mean” value ([8]; week 1) was 7.73 and the “Drinking water intake, Mean” value ([8]; week 2) was 7.06. The “Drinking water intake, Mean” value ([8]; week 3) was 7.69, the “Drinking water intake, Mean” value ([8]; week 4) was 7.69 and the “Drinking water intake, Mean” value ([8]; week 5) was 7.10. The “Drinking water intake, Mean” value ([8]; week 6) was 7.35, the “Drinking water intake, Mean” value ([8]; week 7) was 7.19 and the “Drinking water intake, Mean” value ([8]; week 8) was 7.83. For the same compound, the “Drinking water intake, Mean” value ([8]; week 9) was 7.45 and the “Drinking water intake, Mean” value ([8]; week 10) was 7.19.
